Measured values as given in ChEMBL document CHEMBL1124117, “Coupling products of amino acids to penicillin V and cephalothin: synthesis and susceptibility to carboxypeptidases and lysosomal enzymes” (J Med Chem, 1988).

What was measured:
[1] = Half-life of compound in the presence of lysosomal enzymes in the acetate buffer; assay type: ADME
[2] = Half-life of compound in acetate buffer (pH 4.5); assay type: ADME

Compound	half-life [1]	half-life [2]
CC(=O)OCC1=C(C(=O)NC(CC(C)C)C(=O)O)N2C(=O)[C@@H](NC(=O)Cc3cccs3)[C@H]2SC1 (stereo partly drawn)	48 min	2460 min
CC1(C)S[C@@H]2[C@H](NC(=O)COc3ccccc3)C(=O)N2[C@H]1C(=O)O [PENICILLIN V]	840 min	1020 min
CC1(C)S[C@@H]2[C@H](NC(=O)COc3ccccc3)C(=O)N2[C@H]1C(=O)N[C@@H](Cc1ccc(O)cc1)C(=O)O	420 min	420 min
CC(=O)OCC1=C(C(=O)O)N2C(=O)[C@@H](NC(=O)Cc3cccs3)[C@H]2SC1 [CEPHALOTHIN]	66 min	1740 min
